Values of other authors in patent US10302625B2, “Peripheral measure of central brain inflammation, markers therefor and uses thereof” (CENTRE FOR ADDICTION AND MENTAL HEALTH, priority 2015, dated 2019).

Target: T1, TSPO (Sus scrofa, UniProt Q6UN27)
T1 sequence (Q6UN27 1-169): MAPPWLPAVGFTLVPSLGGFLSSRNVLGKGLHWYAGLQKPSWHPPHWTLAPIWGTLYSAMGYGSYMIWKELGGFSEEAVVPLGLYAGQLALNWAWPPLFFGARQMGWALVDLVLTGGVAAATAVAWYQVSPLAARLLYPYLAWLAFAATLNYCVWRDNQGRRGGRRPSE
Conditions: literature ref 19

affinity for TSPO: high, selective affinity for TSPO
Structure (SMILES): CC(=O)N(Cc1ccccc1OCC[18F])c1cnccc1Oc1ccccc1 [[18F]FEPPA]
